According to patent publication US20030139296A1 (priority 2000, published 2003):
Where a name gives a salt, the structure may show the parent alone. Read-outs that look alike come from different tables or passages of the source.

Key:
Magnaporthe grisea KJ201 [1] = type: in vivo; conditions: rice blast; for Degree of the disease severity: 1 week after inoculation, scale 0~10; for Control value(%): versus Tween 80-treated rice
[2] = system: PAL, APX and HMGR defense genes; conditions: tomato stem soaked in aqueous solution at 50 u uM; FIG. 4
[3] = system: PR1, PBZ1 and POX22.3 defense genes
[4] = system: PR1, PBZ1 and POX22.3 defense genes; conditions: in vivo
Magnaporthe grisea KJ201 [5] = conditions: rice blast; for Degree of the disease severity: 28° C., 1 day, inoculated at fourth-leaf stage, scale 0~10; for Control value(%): versus distilled water-treated rice, HCl
[6] = system: Xanthomonas oryzae pv. oryzae KX021; conditions: bacterial leaf blight in rice; for Degree of the disease severity: distance from inoculated points to symptoms; for Control value(%): versus Tween 80-treated rice, HCl
[7] = system: PR1, PBZ1 and POX22.3 defense genes; conditions: FIG. 1
defense genes in plants = conditions: compared among vitamin B1, vitamin B6 and vitamin C
[8] = 20 mM + Tween 80 (250 ppm) spray
[9] = 50 mM + Tween 80 (250 ppm) spray

Cc1ncc(C[n+]2csc(CCO)c2C)c(N)n1 [Vitamin B1 HCl, thiamine HCl]
Degree of the disease severity (Magnaporthe grisea KJ201 [1]; 5 mM + Tween 80 (250 ppm) spray, inoculated 4 hours after treatment): 6.5 ± 0.6 | Control value(%) (Magnaporthe grisea KJ201 [1]; 5 mM + Tween 80 (250 ppm) spray, HCl): 21.2 ± 7.2% | Control value(%) (Magnaporthe grisea KJ201 [1]; 5 mM + Tween 80 (250 ppm) spray, listed as vitamin B1 hydrochloride, HCl): not more than 30% | Degree of the disease severity (Magnaporthe grisea KJ201 [1]; 10 mM + Tween 80 (250 ppm) spray): 5.8 ± 1.5 | Control value(%) (Magnaporthe grisea KJ201 [1]; 10 mM + Tween 80 (250 ppm) spray, HCl): 30.3 ± 18.2% | Control value(%) (Magnaporthe grisea KJ201 [1]; 10 mM + Tween 80 (250 ppm) spray, listed as vitamin B1 hydrochloride, HCl): not more than 30% | Degree of the disease severity (Magnaporthe grisea KJ201 [1]; [8]): 2.3 ± 1.4 | Control value(%) (Magnaporthe grisea KJ201 [1]; [8]): 72.7 ± 17.0% | Degree of the disease severity (Magnaporthe grisea KJ201 [1]; [9]): 2.8 ± 1.5 | Control value(%) (Magnaporthe grisea KJ201 [1]; [9]): 66.7 ± 18.2% | Degree of the disease severity (Magnaporthe grisea KJ201 [1]; 100 mM + Tween 80 (250 ppm) spray): 1.1 ± 0.8 | Control value(%) (Magnaporthe grisea KJ201 [1]; 100 mM + Tween 80 (250 ppm) spray, HCl): 87.3 ± 9.7% | Control value(%) (Magnaporthe grisea KJ201 [1]; 100 mM + Tween 80 (250 ppm) spray, listed as vitamin B1 hydrochloride, HCl): about 87% | Time by which all the defense genes were expressed [2]: ≤ 1 h | Time after inoculation at which expression of all three defense genes was detected ([3]; in vivo): 24 h | Time after treatment at which expression of defense genes was detected ([3]; in vivo): 24 h | Expression of defense genes compared to groups A and B ([3]; rice treated with 50 mM and then inoculated with leaf blight bacteria (group C), FIG. 3): considerably increased | Time after treatment at which all defense genes tested were induced to express [4]: 4 h | Degree of the disease severity (Magnaporthe grisea KJ201 [5]; seeds soaked at 20 mM): 5.4 ± 3.2 | Control value(%) (Magnaporthe grisea KJ201 [5]; seeds soaked at 20 mM): 44.4 ± 32.8% | Control value(%) (Magnaporthe grisea KJ201 [5]; seeds soaked at 20 mM, listed as vitamin B1 hydrochloride): 44% | Degree of the disease severity (Magnaporthe grisea KJ201 [5]; seeds soaked at 50 mM): 2.3 ± 1.9 | Control value(%) (Magnaporthe grisea KJ201 [5]; seeds soaked at 50 mM): 76.8 ± 19.5% | Control value(%) (Magnaporthe grisea KJ201 [5]; seeds soaked at 50 mM, listed as vitamin B1 hydrochloride): 77% | Degree of the disease severity ([6]; 5 mM + Tween 80 (250 ppm) spray, 1 week after inoculation): 8.7 ± 0.6 | Control value(%) ([6]; 5 mM + Tween 80 (250 ppm)): 10.3 ± 6.2% | Control value(%) ([6]; 5 mM + Tween 80 (250 ppm), listed as vitamin B1 hydrochloride): about 30% | Degree of the disease severity ([6]; 10 mM + Tween 80 (250 ppm) spray, 1 week): 4.2 ± 1.4 | Control value(%) ([6]; 10 mM + Tween 80 (250 ppm)): 56.3 ± 14.4% | Control value(%) ([6]; 10 mM + Tween 80 (250 ppm), listed as vitamin B1 hydrochloride): not less than 56% | Control value(%) ([6]; 20 mM + Tween 80 (250 ppm)): 68.3 ± 25.9% | Control value(%) ([6]; 20 mM + Tween 80 (250 ppm), listed as vitamin B1 hydrochloride): ≥ 68% | Degree of the disease severity ([6]; 50 mM + Tween 80 (250 ppm) spray, 1 week): 0.2 ± 0.3 | Control value(%) ([6]; 50 mM + Tween 80 (250 ppm)): 97.6 ± 3.1% | Control value(%) ([6]; 50 mM + Tween 80 (250 ppm), listed as vitamin B1 hydrochloride): ≥ 97% | Degree of the disease severity ([6]; 100 mM + Tween 80 (250 ppm) spray, 1 week): 0.3 ± 0.1 | Control value(%) ([6]; 100 mM + Tween 80 (250 ppm)): 97.2 ± 1.0% | Control value(%) ([6]; 100 mM + Tween 80 (250 ppm), listed as vitamin B1 hydrochloride): ≥ 97% | Expression of defense genes compared to groups A and B ([7]; rice treated with 50 mM and then inoculated with rice blast fungus (group C)): considerably increased | Time at which expression of defense genes was detected ([7]; rice treated with 50 mM only (group B)): 24 h | Time after inoculation at which expression of all three defense genes was detected ([7]; rice treated with 50 mM, inoculated with rice blast fungus 24 hours later (group C)): 24 h

Cc1ncc(C[n+]2csc(CCO)c2C)c(N)n1 [vitamin B1]
Effectiveness for inducing the expression of defense genes in plants (defense genes in plants): the most effective
